“And” between values parts separate entries of the source, which are not always exact repeats. Identical values can stand only once. Like-named read-outs stand apart in the source and are kept apart here.
Legend:
recombinant RSV L+P = recombinant RSV L+P (Human respiratory syncytial virus A, UniProt P28887); assay: Primed single nucleotide incorporation (SNI) gel assay, recombinant RSV L+P; format: biochemical, Human RSV (strain A2); conditions: for pGCG formation, % inhbition / pGCGA formation, % inhbition / pGCGAA formation, % inhbition: le-11, +3 site
recombinant RSV L+P, sequence (P28887 whole entry): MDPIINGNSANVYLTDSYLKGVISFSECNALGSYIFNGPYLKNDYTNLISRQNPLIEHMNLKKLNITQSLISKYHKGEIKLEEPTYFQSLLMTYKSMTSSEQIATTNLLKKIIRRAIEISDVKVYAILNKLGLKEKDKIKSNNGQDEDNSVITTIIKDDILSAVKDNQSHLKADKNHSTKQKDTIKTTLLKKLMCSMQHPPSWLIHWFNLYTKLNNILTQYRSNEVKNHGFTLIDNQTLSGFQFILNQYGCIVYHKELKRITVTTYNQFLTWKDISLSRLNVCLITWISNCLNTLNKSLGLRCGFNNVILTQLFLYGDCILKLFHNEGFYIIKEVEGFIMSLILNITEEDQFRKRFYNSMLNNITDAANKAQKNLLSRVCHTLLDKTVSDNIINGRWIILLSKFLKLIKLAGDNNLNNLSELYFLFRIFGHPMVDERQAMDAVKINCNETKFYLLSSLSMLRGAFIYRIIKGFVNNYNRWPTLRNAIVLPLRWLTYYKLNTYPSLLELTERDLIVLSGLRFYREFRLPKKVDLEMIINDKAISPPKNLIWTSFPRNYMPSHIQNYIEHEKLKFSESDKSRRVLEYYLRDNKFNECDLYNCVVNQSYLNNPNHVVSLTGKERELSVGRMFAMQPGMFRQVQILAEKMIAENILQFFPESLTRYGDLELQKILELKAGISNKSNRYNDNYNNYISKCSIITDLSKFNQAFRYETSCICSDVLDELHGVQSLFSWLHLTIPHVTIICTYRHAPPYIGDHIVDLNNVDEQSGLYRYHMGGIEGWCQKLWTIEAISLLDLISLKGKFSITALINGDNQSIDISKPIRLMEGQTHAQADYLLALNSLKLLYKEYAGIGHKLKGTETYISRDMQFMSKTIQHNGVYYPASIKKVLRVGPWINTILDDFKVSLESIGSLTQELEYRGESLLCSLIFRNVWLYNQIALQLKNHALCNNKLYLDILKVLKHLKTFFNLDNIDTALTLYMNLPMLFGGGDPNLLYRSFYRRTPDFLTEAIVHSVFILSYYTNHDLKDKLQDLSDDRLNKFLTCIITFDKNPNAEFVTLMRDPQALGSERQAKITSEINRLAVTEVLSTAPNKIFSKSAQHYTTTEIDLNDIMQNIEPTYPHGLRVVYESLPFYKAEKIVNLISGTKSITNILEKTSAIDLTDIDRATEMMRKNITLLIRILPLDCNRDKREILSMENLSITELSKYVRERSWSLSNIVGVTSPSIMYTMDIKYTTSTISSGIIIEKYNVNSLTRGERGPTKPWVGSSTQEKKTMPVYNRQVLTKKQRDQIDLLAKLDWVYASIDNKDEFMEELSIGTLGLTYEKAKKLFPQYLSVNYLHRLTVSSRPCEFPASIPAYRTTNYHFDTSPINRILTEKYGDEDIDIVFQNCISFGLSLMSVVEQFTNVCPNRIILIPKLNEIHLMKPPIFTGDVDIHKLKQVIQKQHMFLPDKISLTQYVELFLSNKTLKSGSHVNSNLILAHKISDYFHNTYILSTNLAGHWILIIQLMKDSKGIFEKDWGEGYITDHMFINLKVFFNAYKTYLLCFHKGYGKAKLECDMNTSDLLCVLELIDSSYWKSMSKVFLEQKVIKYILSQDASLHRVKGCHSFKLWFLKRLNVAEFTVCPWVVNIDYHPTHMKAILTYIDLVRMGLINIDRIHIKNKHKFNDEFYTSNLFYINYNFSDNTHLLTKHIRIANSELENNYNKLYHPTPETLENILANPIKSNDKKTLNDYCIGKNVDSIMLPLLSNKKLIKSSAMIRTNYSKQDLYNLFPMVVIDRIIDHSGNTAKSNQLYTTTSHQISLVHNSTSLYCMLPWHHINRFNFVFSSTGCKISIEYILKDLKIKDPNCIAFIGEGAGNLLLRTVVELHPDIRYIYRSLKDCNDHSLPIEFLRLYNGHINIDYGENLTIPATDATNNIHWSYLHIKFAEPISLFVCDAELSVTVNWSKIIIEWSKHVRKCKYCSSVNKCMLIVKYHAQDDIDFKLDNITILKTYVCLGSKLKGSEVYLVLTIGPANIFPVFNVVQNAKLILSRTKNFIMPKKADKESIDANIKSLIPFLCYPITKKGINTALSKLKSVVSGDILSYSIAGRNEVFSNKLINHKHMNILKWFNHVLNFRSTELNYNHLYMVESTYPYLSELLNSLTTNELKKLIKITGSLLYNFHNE
recombinant RSV L+P, sequence (P03421 whole entry, further chain): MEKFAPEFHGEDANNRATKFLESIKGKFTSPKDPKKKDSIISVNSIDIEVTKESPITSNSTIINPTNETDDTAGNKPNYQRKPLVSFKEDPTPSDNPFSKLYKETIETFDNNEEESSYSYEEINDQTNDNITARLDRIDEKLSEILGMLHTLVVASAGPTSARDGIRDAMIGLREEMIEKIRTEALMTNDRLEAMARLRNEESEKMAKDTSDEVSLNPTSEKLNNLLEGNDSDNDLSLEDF
Experimental: RNA polymerase reaction samples consisted of 0.2 μM recombinant RSV L-P polymerase, 0.2 μM of an RNA template (Le11 or Tr14), and 400 μM of a short primer (sequences as indicated in the figures), mixed in a buffer containing 50 mM Tris pH 7.4, 2 mM dithiothreitol and 6 mM MgCl2. For the assay in Fig. 1d, reactions were started by adding 100 nM [α-^32P]GTP (3000 Ci/mmol) tracer and incubated at 30 °C for 10 min. […] Reactions were stopped by adding an equal volume of gel loading buffer containing 90% formamide, 50 mM EDTA, 0.05% Xylene Cyanol, and Bromophenol Blue. Samples were denatured at 95 °C for 5 min and run on a 22.5% polyacrylamide urea sequencing gel at 80 W. The gel was transferred onto a Whatman cellulose chromatography paper (Millipore Sigma) and dried on a gel dryer (Bio-Rad) for 1 h. The dried gel was exposed to a phosphor-screen, scanned on a Typhoon phosphorimager (GE Healthcare), and quantified using ImageQuant (GE Healthcare).

[1] = system: HMPV (recombinant CAN97-83-derived strain encoding GFP); assay: microbe, parasite or virus in culture; format: cell-based; conditions: human metapneumovirus, LLC-MK2
[2] = le-11, +1 site, 1 uM, replicates, 1 µM
[3] = tr-14, +1 site, 0.00390625 uM, replicates, 0.00390625 µM
[4] = tr-14, +1 site, 0.0078125 uM, replicates, 0.0078125 µM
[5] = tr-14, +1 site, 0.015625 uM, replicates, 0.015625 µM
[6] = tr-14, +1 site, 0.03125 uM, replicates, 0.03125 µM
[7] = tr-14, +1 site, 0.0625 uM, replicates, 0.0625 µM
[8] = tr-14, +1 site, 0.125 uM, replicates, 0.125 µM
[9] = tr-14, +1 site, 0.25 uM, replicates, 0.25 µM
[10] = tr-14, +1 site, 0.5 uM, replicates, 0.5 µM
[11] = tr-14, +1 site, 1 uM, replicates, 1 µM

## COc1cc(C(=O)NC[C@](O)(c2cc(C(C)(C)O)c(F)c(-c3ccc(F)cc3)n2)C(F)(F)F)cc2cc(C)nnc12 [JNJ-8003]
Recombinant RSV L+P; le-11, +1 site, 0.5 uM, replicates, read-out: pACG formation, % inhibition
  inhibition at 0.5 µM: 92.2%
Recombinant RSV L+P; le-11, +1 site, 0.5 uM, replicates, read-out: pACGC formation, % inhibition
  inhibition at 0.5 µM: 16.5%
Recombinant RSV L+P; le-11, +1 site, 0.5 uM, replicates, read-out: pACGCG formation, % inhibition
  inhibition at 0.5 µM: 92%
Recombinant RSV L+P; [2]
  pACG formation, % inhibition: 87.3809%
  pACGCG formation, % inhibition: 94.5412%
Recombinant RSV L+P; le-11, +1 site, 1 uM, replicates, read-out: pACG formation, % inhibition
  inhibition at 1 µM: 92.2%
Recombinant RSV L+P; le-11, +1 site, 1 uM, replicates, read-out: pACGC formation, % inhibition
  inhibition at 1 µM: 32.4%
Recombinant RSV L+P; le-11, +1 site, 1 uM, replicates, read-out: pACGCG formation, % inhibition
  inhibition at 1 µM: 96.1%
Recombinant RSV L+P; 0.00390625 uM, replicates
  pGCG formation, % inhbition: 23.7355% and 15.5622%
  pGCGA formation, % inhbition: 16.5629% and 19.135%
  pGCGAA formation, % inhbition: 30.4505% and 24.1004%
Recombinant RSV L+P; 0.0078125 uM, replicates
  pGCG formation, % inhbition: 29.8775% and 21.4895%
  pGCGA formation, % inhbition: 17.4928% and 21.885%
  pGCGAA formation, % inhbition: 52.8128% and 27.8666%
Recombinant RSV L+P; 0.015625 uM, replicates
  pGCG formation, % inhbition: 50.6818% and 35.2042%
  pGCGA formation, % inhbition: 18.8117% and 25.399%
  pGCGAA formation, % inhbition: 51.4133% and 43.0842%
Recombinant RSV L+P; 0.03125 uM, replicates
  pGCG formation, % inhbition: 80.9404% and 57.9787%
  pGCGA formation, % inhbition: 58.0899% and 36.3323%
  pGCGAA formation, % inhbition: 92.0704% and 68.8528%
Recombinant RSV L+P; 0.0625 uM, replicates
  pGCG formation, % inhbition: 96.7556% and 96.0463%
  pGCGA formation, % inhbition: 77.4419% and 86.4681%
  pGCGAA formation, % inhbition: 98.2035% and 97.0821%
Recombinant RSV L+P; 0.125 uM, replicates
  pGCG formation, % inhbition: 97.7751% and 97.5727%
  pGCGA formation, % inhbition: 83.7601% and 82.1258%
  pGCGAA formation, % inhbition: 98.5207% and 97.9021%
Recombinant RSV L+P; 0.25 uM, replicates
  pGCG formation, % inhbition: 97.8446% and 96.8207%
  pGCGA formation, % inhbition: 81.8016% and 75.4758%
  pGCGAA formation, % inhbition: 98.388% and 97.2094%
Recombinant RSV L+P; 0.5 uM, replicates
  pGCG formation, % inhbition: 96.68% and 97.1903%
  pGCGA formation, % inhbition: 77.4429% and 81.101%
  pGCGAA formation, % inhbition: 98.095% and 97.9035%
Recombinant RSV L+P; 1 uM, replicates
  pGCG formation, % inhbition: 97.6913% and 97.6125%
  pGCGA formation, % inhbition: 86.6689% and 82.9875%
  pGCGAA formation, % inhbition: 98.8723% and 98.1005%
Recombinant RSV L+P; le-11 and tr-14 templates, +1 and +3 site, read-out: IC50 values in the SNI assays
  IC50: 17 to 32 nM
Recombinant RSV L+P; [3]
  pACG formation, % inhibition: 31.6%
  pACGAG formation, % inhibition: 12.8614% and 26.6827%
Recombinant RSV L+P; tr-14, +1 site, 0.00390625 uM, replicates, read-out: pACG formation, % inhibition
  inhibition at 0.00390625 µM: 28.1%
Recombinant RSV L+P; [4]
  pACG formation, % inhibition: 29.3%
  pACGAG formation, % inhibition: 35.8415%
Recombinant RSV L+P; tr-14, +1 site, 0.0078125 uM, replicates, read-out: pACG formation, % inhibition
  inhibition at 0.0078125 µM: 41.6%
Recombinant RSV L+P; tr-14, +1 site, 0.0078125 uM, replicates, read-out: pACGAG formation, % inhibition
  inhibition at 0.0078125 µM: 21.3%
Recombinant RSV L+P; [5]
  pACG formation, % inhibition: 48.5%
  pACGAG formation, % inhibition: 57.7598%
Recombinant RSV L+P; tr-14, +1 site, 0.015625 uM, replicates, read-out: pACG formation, % inhibition
  inhibition at 0.015625 µM: 62.7%
Recombinant RSV L+P; tr-14, +1 site, 0.015625 uM, replicates, read-out: pACGAG formation, % inhibition
  inhibition at 0.015625 µM: 50.6%
Recombinant RSV L+P; [6]
  pACG formation, % inhibition: 79.8%
  pACGAG formation, % inhibition: 90.4225%
Recombinant RSV L+P; tr-14, +1 site, 0.03125 uM, replicates, read-out: pACG formation, % inhibition
  inhibition at 0.03125 µM: 93.9%
Recombinant RSV L+P; tr-14, +1 site, 0.03125 uM, replicates, read-out: pACGA formation, % inhibition
  inhibition at 0.03125 µM: 19.2%
Recombinant RSV L+P; tr-14, +1 site, 0.03125 uM, replicates, read-out: pACGAG formation, % inhibition
  inhibition at 0.03125 µM: 92.2%
Recombinant RSV L+P; [7]
  pACG formation, % inhibition: 93.7%
  pACGAG formation, % inhibition: 96.2948%
Recombinant RSV L+P; tr-14, +1 site, 0.0625 uM, replicates, read-out: pACG formation, % inhibition
  inhibition at 0.0625 µM: 95.6%
Recombinant RSV L+P; tr-14, +1 site, 0.0625 uM, replicates, read-out: pACGA formation, % inhibition
  inhibition at 0.0625 µM: 23%
Recombinant RSV L+P; tr-14, +1 site, 0.0625 uM, replicates, read-out: pACGAG formation, % inhibition
  inhibition at 0.0625 µM: 95.3%
Recombinant RSV L+P; [8]
  pACG formation, % inhibition: 94.1%
  pACGAG formation, % inhibition: 96.5623%
Recombinant RSV L+P; tr-14, +1 site, 0.125 uM, replicates, read-out: pACG formation, % inhibition
  inhibition at 0.125 µM: 95.7%
Recombinant RSV L+P; tr-14, +1 site, 0.125 uM, replicates, read-out: pACGA formation, % inhibition
  inhibition at 0.125 µM: 18.9%
Recombinant RSV L+P; tr-14, +1 site, 0.125 uM, replicates, read-out: pACGAG formation, % inhibition
  inhibition at 0.125 µM: 95.9%
Recombinant RSV L+P; [9]
  pACG formation, % inhibition: 94.4%
  pACGAG formation, % inhibition: 96.9953%
Recombinant RSV L+P; tr-14, +1 site, 0.25 uM, replicates, read-out: pACG formation, % inhibition
  inhibition at 0.25 µM: 95.3%
Recombinant RSV L+P; tr-14, +1 site, 0.25 uM, replicates, read-out: pACGA formation, % inhibition
  inhibition at 0.25 µM: 21.3%
Recombinant RSV L+P; tr-14, +1 site, 0.25 uM, replicates, read-out: pACGAG formation, % inhibition
  inhibition at 0.25 µM: 96.3%
Recombinant RSV L+P; [10]
  pACG formation, % inhibition: 93.2%
  pACGAG formation, % inhibition: 97.0094%
Recombinant RSV L+P; tr-14, +1 site, 0.5 uM, replicates, read-out: pACG formation, % inhibition
  inhibition at 0.5 µM: 93.9%
Recombinant RSV L+P; tr-14, +1 site, 0.5 uM, replicates, read-out: pACGAG formation, % inhibition
  inhibition at 0.5 µM: 95.7%
Recombinant RSV L+P; [11]
  pACG formation, % inhibition: 91.9%
  pACGAG formation, % inhibition: 97.3064%
Recombinant RSV L+P; tr-14, +1 site, 1 uM, replicates, read-out: pACG formation, % inhibition
  inhibition at 1 µM: 92.2%
Recombinant RSV L+P; tr-14, +1 site, 1 uM, replicates, read-out: pACGA formation, % inhibition
  inhibition at 1 µM: 39%
Recombinant RSV L+P; tr-14, +1 site, 1 uM, replicates, read-out: pACGAG formation, % inhibition
  inhibition at 1 µM: 97%
[1]
  EC50: 88 nM

— PMC10590419, “Structural and mechanistic insights into the inhibition of respiratory syncytial virus polymerase by a non-nucleoside inhibitor” (Communications Biology, 2023)
